US9790228B2, “Heterocyclic kinase inhibitors” (Intellikine LLC, priority 2008, dated 2017)

Tests used:
p110γ = p110γ (Homo sapiens (Human), UniProt P48736); assay: PI3K γ inhibition assay (TLC lipid kinase or HTRF); format: biochemical
How it was run: (§1)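 IC50 from TLC lipid kinase assay (25 mM HEPES pH 7.4, 10 mM MgCl2, 100 μg/ml phosphatidylinositol, 10 or 100 μM γ-32P-ATP, 5 min RT, phosphorimager) at 10–12 two-fold dilutions, or HTRF (10 μM PIP2, 10 μM ATP, 1 h RT) measuring PIP3 by TR-FRET; 2% DMSO final.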

Balb/c splenic B cells = assay: B cell activation and proliferation assay (Alamar Blue); format: cell-based, mouse; settings: Mus musculus, B-cell
Method: The ability of one or more subject compounds to inhibit B cell activation and proliferation is determined according to standard procedures known in the art. For example, an in vitro cellular proliferation assay is established that measures the metabolic activity of live cells. The assay is performed in a 96 well microtiter plate using Alamar Blue reduction. Balb/c splenic B cells are purified over a Ficoll-Paque™ PLUS gradient followed by magnetic cell separation using a MACS B cell Isolation Kit (Miletenyi). Cells are plated in 90 ul at 50,000 cells/well in B Cell Media (RPMI+10% FBS+Penn/Strep+50 uM bME+5 mM HEPES). A compound disclosed herein is diluted in B Cell Media and added in a 10 ul volume. Plates are incubated for 30 min at 37 C and 5% CO2 (0.2% DMSO final concentration). A 50 ul B cell stimulation cocktail is then added containing either 10 ug/ml LPS or 5 ug/ml F(ab′)2 Donkey anti-mouse IgM plus 2 ng/ml recombinant mouse IL4 in B Cell Media. Plates are incubated for 72 hours at 37° C. and 5% CO2. A volume of 15 uL of Alamar Blue reagent is added to each well and plates are incubated for 5 hours at 37 C and 5% CO2. Alamar Blue fluoresce is read at 560Ex/590Em, and IC50 or EC50 values are calculated using GraphPad Prism 5.

p110δ/p85α = p110δ/p85α (Homo sapiens (Human), UniProt O00329); assay: PI3K δ inhibition assay (TLC lipid kinase or HTRF); format: biochemical
p110δ/p85α, sequence (O00329 whole entry): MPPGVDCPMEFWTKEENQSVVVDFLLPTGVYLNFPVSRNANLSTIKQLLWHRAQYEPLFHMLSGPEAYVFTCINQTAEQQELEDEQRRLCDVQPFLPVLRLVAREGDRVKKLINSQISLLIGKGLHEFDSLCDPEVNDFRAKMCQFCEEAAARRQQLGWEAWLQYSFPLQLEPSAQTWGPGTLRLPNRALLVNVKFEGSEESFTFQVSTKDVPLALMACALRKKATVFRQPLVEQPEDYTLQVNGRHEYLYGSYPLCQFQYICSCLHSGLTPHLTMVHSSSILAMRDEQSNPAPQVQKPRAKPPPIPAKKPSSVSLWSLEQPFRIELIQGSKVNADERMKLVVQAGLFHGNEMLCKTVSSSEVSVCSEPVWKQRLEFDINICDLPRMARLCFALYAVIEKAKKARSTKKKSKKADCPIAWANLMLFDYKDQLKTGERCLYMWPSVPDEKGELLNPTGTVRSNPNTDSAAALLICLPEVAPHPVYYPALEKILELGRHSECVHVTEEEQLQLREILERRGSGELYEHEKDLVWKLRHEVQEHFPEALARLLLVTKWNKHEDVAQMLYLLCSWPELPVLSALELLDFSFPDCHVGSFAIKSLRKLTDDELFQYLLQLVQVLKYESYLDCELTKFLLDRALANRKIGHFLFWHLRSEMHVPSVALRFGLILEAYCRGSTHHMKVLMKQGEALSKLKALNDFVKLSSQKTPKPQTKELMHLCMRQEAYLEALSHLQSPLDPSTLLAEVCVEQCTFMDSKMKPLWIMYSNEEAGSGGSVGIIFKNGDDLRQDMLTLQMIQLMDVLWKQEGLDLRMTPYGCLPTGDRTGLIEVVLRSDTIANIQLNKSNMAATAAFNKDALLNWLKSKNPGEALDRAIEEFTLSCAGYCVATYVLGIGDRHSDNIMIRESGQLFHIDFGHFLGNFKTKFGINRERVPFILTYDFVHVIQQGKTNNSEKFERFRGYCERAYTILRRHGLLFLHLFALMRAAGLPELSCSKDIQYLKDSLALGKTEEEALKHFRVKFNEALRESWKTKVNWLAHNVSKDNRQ
p110δ/p85α, sequence (P27986 whole entry partner): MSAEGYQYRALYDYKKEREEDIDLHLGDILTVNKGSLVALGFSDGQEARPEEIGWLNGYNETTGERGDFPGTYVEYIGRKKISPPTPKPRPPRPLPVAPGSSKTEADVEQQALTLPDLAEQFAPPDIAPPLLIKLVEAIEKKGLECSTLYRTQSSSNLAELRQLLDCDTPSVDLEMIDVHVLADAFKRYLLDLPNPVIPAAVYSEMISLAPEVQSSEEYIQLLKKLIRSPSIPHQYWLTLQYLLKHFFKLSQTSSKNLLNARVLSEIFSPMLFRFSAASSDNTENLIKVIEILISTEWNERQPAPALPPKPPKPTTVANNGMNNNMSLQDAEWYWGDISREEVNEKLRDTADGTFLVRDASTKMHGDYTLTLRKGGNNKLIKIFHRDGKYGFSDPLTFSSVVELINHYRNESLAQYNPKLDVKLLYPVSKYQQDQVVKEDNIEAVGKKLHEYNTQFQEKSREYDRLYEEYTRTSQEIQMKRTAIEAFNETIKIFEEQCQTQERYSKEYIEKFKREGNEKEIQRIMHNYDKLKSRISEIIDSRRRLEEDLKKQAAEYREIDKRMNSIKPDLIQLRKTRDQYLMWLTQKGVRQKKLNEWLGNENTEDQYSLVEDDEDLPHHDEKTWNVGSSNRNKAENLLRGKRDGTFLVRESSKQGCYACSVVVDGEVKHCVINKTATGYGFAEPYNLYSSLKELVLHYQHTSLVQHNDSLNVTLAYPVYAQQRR
How it was run: as §1

p110β/p85α = p110β/p85α (Homo sapiens, UniProt P42338); assay: PI3K β inhibition assay (TLC lipid kinase or HTRF); format: biochemical; settings: read-out: PI3K β IC50
p110β/p85α, sequence (P42338 whole entry, looked up): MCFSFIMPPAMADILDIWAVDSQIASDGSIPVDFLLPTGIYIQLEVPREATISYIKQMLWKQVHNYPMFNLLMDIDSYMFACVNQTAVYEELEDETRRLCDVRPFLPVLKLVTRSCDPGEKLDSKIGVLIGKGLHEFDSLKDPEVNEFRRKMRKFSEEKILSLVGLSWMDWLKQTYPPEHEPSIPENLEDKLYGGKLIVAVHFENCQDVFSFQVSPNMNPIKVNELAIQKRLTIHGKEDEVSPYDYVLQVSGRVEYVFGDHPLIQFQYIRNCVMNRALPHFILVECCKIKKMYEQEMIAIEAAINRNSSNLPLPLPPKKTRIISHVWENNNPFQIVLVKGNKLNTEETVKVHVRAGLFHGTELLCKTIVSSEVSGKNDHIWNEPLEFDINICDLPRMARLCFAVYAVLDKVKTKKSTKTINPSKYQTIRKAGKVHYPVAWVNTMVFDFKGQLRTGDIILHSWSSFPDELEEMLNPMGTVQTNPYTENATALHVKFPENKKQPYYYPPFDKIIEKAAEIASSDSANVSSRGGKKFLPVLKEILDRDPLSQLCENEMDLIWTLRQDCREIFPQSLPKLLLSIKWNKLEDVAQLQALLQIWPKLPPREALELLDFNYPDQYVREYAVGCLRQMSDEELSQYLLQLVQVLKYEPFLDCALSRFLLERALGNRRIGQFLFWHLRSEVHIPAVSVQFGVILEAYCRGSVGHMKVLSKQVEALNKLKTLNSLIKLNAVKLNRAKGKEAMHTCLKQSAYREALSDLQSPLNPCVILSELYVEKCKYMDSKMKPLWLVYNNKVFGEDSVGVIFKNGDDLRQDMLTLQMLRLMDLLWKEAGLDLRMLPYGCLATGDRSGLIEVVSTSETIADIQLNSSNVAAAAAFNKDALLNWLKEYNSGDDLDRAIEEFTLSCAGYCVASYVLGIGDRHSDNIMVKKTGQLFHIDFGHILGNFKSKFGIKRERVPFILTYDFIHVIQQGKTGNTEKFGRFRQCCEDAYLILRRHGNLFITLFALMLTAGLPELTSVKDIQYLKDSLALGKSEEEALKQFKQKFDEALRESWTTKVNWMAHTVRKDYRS
How it was run: as §1

p110α/p85α = p110α/p85α (Homo sapiens (Human), UniProt P42336); assay: PI3K α inhibition assay (TLC lipid kinase or HTRF); format: biochemical
p110α/p85α, sequence (P42336 whole entry): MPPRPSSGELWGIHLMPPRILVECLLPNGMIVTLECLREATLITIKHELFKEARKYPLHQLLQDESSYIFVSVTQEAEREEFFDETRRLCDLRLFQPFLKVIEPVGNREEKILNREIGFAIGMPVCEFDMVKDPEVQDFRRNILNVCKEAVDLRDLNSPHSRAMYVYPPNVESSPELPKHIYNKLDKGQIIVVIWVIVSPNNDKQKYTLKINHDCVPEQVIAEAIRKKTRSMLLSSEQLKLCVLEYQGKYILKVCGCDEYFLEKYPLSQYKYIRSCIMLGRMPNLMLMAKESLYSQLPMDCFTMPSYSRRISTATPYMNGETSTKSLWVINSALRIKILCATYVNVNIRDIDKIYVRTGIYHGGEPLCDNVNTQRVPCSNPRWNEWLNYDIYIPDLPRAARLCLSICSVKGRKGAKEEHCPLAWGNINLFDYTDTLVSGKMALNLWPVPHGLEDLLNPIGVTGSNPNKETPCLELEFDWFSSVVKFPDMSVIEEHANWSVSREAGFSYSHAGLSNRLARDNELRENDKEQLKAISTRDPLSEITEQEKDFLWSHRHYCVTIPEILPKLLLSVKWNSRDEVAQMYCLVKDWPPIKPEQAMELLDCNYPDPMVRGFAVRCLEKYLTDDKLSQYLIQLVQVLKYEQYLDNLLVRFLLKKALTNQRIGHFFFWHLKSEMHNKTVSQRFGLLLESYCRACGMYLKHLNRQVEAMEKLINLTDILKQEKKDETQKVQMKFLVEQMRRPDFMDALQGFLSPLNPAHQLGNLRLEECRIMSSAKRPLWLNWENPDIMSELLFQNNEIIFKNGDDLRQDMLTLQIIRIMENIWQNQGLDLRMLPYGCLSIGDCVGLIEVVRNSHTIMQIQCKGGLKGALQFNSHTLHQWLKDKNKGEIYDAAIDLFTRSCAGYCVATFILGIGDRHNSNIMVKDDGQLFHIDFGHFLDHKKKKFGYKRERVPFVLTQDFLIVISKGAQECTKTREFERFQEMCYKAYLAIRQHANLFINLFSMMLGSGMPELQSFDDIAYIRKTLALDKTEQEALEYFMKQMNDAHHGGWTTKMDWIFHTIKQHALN
p110α/p85α, sequence (P27986 whole entry partner): as the sequence (P27986 whole entry partner) above
How it was run: as §1

p110γ, sequence (P48736 whole entry): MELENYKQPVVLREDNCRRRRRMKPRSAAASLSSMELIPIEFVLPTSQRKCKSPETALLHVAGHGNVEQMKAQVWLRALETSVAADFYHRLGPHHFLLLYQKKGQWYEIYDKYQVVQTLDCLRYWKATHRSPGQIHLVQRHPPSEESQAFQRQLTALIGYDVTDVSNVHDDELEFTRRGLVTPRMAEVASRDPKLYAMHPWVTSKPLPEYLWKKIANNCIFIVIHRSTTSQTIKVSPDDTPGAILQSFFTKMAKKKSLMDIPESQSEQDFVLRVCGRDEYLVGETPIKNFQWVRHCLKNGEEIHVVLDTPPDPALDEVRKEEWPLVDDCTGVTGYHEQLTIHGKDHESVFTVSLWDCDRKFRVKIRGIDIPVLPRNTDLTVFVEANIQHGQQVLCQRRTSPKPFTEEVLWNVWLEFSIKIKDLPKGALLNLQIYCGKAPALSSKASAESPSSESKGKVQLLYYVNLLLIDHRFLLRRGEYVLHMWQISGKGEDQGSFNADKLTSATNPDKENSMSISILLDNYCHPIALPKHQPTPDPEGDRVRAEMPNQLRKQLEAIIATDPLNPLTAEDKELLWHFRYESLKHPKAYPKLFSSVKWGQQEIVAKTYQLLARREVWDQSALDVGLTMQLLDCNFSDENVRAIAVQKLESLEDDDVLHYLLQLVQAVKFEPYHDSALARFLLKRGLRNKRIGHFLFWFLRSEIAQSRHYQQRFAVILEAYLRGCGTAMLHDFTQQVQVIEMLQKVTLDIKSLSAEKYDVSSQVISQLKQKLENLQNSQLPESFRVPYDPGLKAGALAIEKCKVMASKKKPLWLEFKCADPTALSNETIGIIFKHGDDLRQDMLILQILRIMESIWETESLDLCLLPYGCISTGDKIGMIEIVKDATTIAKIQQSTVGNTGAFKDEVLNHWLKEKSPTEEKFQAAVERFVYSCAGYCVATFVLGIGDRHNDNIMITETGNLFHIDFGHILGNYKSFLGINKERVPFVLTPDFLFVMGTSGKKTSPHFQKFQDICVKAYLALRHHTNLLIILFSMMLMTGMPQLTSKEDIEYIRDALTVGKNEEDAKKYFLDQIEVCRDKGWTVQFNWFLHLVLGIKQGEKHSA

SMILES | IC50 (p110γ) [nM] | EC50 (Balb/c splenic B cells) [nM] | IC50 (p110δ/p85α) [nM] | IC50 (p110β/p85α) [nM] | IC50 (p110α/p85α) [nM]
Nc1ncnc2c1c(I)nn2Cc1cc2ccccc2nc1N1CCCC1 [Compound 1] | < 100 | 100 to 1000 | < 100 | > 1000 | > 1000
Nc1ncnc2c1c(-c1cc(O)cc(F)c1)nn2Cc1cc2ccccc2nc1N1CCCC1 [Compound 2] | < 100 | < 100 | < 100 | 100 to 1000 | > 1000
Cc1ccccc1-c1nc2ccccc2cc1Cn1nc(I)c2c(N)ncnc21 [Compound 3] | 100 to 1000 | 100 to 1000 | < 100 | > 1000 | > 1000
Cc1ccccc1-c1nc2ccccc2cc1Cn1nc(-c2cc(O)cc(F)c2)c2c(N)ncnc21 [Compound 4] | < 100 | < 100 | < 100 | > 1000 | > 1000
Cc1ccccc1-c1nc2ccccc2cc1Cn1nc(-c2cccc(O)c2)c2c(N)ncnc21 [Compound 5] | 100 to 1000 | 100 to 1000 | < 100 | > 1000 | > 1000
Cc1cccc2cc(Cn3nc(I)c4c(N)ncnc43)c(N3CCCC3)nc12 [Compound 6] | > 1000 | 100 to 1000 | < 100 | > 1000 | > 1000
Cc1ccccc1-c1nc2c(C)cccc2cc1Cn1nc(I)c2c(N)ncnc21 [Compound 7] | < 100 | 100 to 1000 | < 100 | > 1000 | > 1000
Cc1ccccc1-c1nc2c(C)cccc2cc1Cn1nc(-c2cc(O)cc(F)c2)c2c(N)ncnc21 [Compound 8] | < 100 | < 100 | < 100 | > 1000 | > 1000
Cc1cccc2cc(Cn3nc(-c4cc(O)cc(F)c4)c4c(N)ncnc43)c(N3CCCC3)nc12 [Compound 9] | – | < 100 | < 100 | > 1000 | > 1000
Cc1cccc2cc(Cn3nc(-c4cccc(O)c4)c4c(N)ncnc43)c(N3CCCC3)nc12 [Compound 10] | – | 100 to 1000 | < 100 | > 1000 | > 1000
CC(C)c1ccccc1-c1nc2ccccc2cc1Cn1nc(-c2cc(O)cc(F)c2)c2c(N)ncnc21 [Compound 17] | < 100 | < 100 | < 100 | 100 to 1000 | 100 to 1000
CCN1CCN(c2nc3ccccc3cc2Cn2nc(-c3cc(O)cc(F)c3)c3c(N)ncnc32)CC1 [Compound 38] | > 1000 | < 100 | < 100 | < 100 | > 1000
CCC(c1cc2ccccc2nc1N1CCCC1)n1nc(-c2cccc(O)c2)c2c(N)ncnc21 (stereo not drawn) [Compound 39] | > 1000 | < 100 | < 100 | > 1000 | > 1000
CCC(c1cc2ccccc2nc1N1CCCC1)n1nc(-c2cc(O)cc(F)c2)c2c(N)ncnc21 (stereo not drawn) [Compound 40] | 100 to 1000 | < 100 | < 100 | > 1000 | > 1000
CN1CCN(c2nc3ccccc3cc2Cn2nc(-c3cccc(O)c3)c3c(N)ncnc32)CC1 [Compound 43] | > 1000 | 100 to 1000 | < 100 | 100 to 1000 | > 1000
CN1CCN(c2nc3ccccc3cc2Cn2nc(-c3cc(O)cc(F)c3)c3c(N)ncnc32)CC1 [Compound 50] | > 1000 | < 100 | < 100 | < 100 | > 1000
CC(C)N(C)c1nc2ccccc2cc1Cn1nc(-c2cc(O)cc(F)c2)c2c(N)ncnc21 [Compound 52] | 100 to 1000 | < 100 | < 100 | 100 to 1000 | 100 to 1000
Nc1ncnc2c1c(-c1cc(O)cc(F)c1)nn2Cc1cc2ccccc2nc1Cl [Compound 54] | 100 to 1000 | < 100 | < 100 | > 1000 | > 1000
Nc1ncnc2c1c(-c1cc(O)cc(F)c1)nn2Cc1cc2ccccc2nc1-c1cccnc1 [Compound 55] | 100 to 1000 | < 100 | < 100 | > 1000 | > 1000
Cc1ccncc1-c1nc2ccccc2cc1Cn1nc(-c2cc(O)cc(F)c2)c2c(N)ncnc21 [Compound 56] | < 100 | < 100 | < 100 | > 1000 | > 1000
Nc1ncnc2c1c(-c1cc(O)cc(F)c1)nn2Cc1cc2ccccc2nc1-c1ccccc1 [Compound 57] | < 100 | < 100 | < 100 | 100 to 1000 | 100 to 1000
CC(c1cc2ccccc2nc1-c1ccccc1)n1nc(-c2cccc(O)c2)c2c(N)ncnc21 (stereo not drawn) [Compound 59] | 100 to 1000 | < 100 | < 100 | > 1000 | > 1000
Nc1ncnc2c1c(-c1cc(O)cc(F)c1)nn2Cc1cc2ccccc2nc1N1CCOCC1 [Compound 63] | 100 to 1000 | < 100 | < 100 | > 1000 | > 1000
CC(C)N(C)c1nc2ccccc2cc1Cn1nc(-c2cccc(O)c2)c2c(N)ncnc21 [Compound 150] | < 100 | < 100 | < 100 | > 1000 | –
CC(=O)Nc1nc2ccc(-c3nn(Cc4cc5ccccc5nc4N(C)C(C)C)c4ncnc(N)c34)cc2s1 [Compound 151] | < 100 | < 100 | < 100 | 100 to 1000 | –
Nc1ncnc2c1c(-c1cc(O)cc(F)c1)nn2Cc1cc2ccccc2nc1CN1CCCC1 [Compound 174] | – | < 100 | < 100 | < 100 | > 1000
Cc1nccn1-c1cc2ccccc2cc1Cn1nc(-c2ccc3nc(N)sc3c2)c2c(N)ncnc21 [Compound 175] | – | < 100 | < 100 | > 1000 | 100 to 1000
Cc1cn(-c2nc3ccccc3cc2Cn2nc(-c3ccc4nc(N)sc4c3)c3c(N)ncnc32)cn1 [Compound 176] | – | < 100 | < 100 | > 1000 | 100 to 1000
CC(=O)Nc1nc2ccc(-c3nn(Cc4cc5ccccc5nc4N4CCCC4C)c4ncnc(N)c34)cc2s1 (stereo not drawn) [Compound 186] | – | < 100 | < 100 | > 1000 | 100 to 1000
CC1CCCN1c1nc2ccccc2cc1Cn1nc(-c2ccc3nc(N)sc3c2)c2c(N)ncnc21 (stereo not drawn) [Compound 187] | – | < 100 | < 100 | 100 to 1000 | < 100
